BindingDB's records for patent US9796704 (SYMPHONY EVOLUTION, INC., 2017)

Columns and labels:
Assay in all cases: AlphaScreen Assay
[1] = target: Vascular endothelial growth factor receptor 2 (Homo sapiens, UniProt P35968)
[2] = target: Receptor tyrosine-protein kinase erbB-2 (Homo sapiens, UniProt P04626)
[3] = target: Ephrin type-A receptor 2 (Homo sapiens, UniProt P29317)
Chain of Ephrin type-A receptor 2 (P29317 whole entry): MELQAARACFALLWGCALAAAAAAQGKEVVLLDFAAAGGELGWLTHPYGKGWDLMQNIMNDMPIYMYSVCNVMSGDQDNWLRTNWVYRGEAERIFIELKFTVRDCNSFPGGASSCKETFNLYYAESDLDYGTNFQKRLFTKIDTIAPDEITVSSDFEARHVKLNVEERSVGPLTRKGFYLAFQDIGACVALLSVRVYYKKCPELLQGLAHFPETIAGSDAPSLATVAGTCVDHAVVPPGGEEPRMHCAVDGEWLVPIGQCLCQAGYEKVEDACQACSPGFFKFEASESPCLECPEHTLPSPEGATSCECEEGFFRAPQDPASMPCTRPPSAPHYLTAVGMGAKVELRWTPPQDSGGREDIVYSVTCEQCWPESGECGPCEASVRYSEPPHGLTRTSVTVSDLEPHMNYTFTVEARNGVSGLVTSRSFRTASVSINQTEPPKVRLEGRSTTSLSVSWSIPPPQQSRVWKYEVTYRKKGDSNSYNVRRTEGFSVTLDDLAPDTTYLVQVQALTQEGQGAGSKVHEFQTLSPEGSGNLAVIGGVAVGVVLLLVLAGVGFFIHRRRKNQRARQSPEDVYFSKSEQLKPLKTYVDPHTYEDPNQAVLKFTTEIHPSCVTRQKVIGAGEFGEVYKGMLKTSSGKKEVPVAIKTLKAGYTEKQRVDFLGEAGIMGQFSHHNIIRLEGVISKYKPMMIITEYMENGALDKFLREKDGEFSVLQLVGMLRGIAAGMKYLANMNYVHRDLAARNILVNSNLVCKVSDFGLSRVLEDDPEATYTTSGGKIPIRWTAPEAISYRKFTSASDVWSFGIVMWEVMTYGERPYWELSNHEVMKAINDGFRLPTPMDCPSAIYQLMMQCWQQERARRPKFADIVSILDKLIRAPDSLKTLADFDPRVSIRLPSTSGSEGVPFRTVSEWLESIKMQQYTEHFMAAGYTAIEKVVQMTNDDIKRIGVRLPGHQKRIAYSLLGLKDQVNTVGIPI

Chain of Receptor tyrosine-protein kinase erbB-2 (P04626 whole entry): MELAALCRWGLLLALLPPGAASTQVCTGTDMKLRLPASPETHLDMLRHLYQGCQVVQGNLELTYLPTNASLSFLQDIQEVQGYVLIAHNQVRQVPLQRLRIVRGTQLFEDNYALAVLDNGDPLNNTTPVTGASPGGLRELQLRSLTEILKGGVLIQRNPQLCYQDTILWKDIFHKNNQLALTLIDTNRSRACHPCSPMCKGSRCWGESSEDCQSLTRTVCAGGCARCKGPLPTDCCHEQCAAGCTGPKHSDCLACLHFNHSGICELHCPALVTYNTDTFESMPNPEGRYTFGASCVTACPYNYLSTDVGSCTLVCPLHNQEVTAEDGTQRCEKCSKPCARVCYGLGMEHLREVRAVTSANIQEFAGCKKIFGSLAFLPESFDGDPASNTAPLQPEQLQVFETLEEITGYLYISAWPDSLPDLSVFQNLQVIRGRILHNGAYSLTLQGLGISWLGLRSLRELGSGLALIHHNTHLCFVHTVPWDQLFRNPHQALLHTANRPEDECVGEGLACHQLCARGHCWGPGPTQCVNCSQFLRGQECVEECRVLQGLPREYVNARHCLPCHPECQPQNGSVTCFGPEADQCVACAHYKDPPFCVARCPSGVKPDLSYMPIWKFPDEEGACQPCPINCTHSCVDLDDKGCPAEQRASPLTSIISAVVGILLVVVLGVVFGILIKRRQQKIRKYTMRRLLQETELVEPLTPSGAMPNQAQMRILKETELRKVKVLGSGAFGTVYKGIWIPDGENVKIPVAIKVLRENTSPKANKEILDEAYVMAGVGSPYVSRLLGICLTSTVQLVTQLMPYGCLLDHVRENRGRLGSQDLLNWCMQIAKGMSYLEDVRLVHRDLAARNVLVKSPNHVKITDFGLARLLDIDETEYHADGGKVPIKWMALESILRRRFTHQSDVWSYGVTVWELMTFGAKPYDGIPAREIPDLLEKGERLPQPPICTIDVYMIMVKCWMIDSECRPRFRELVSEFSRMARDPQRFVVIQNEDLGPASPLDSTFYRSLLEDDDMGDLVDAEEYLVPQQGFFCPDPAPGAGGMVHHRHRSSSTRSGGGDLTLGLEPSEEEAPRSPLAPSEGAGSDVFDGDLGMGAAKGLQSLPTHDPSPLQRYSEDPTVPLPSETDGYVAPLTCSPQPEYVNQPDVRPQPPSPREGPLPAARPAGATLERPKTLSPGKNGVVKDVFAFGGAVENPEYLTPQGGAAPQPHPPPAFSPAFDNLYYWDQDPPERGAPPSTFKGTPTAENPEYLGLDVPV
Chain of Vascular endothelial growth factor receptor 2 (P35968 whole entry): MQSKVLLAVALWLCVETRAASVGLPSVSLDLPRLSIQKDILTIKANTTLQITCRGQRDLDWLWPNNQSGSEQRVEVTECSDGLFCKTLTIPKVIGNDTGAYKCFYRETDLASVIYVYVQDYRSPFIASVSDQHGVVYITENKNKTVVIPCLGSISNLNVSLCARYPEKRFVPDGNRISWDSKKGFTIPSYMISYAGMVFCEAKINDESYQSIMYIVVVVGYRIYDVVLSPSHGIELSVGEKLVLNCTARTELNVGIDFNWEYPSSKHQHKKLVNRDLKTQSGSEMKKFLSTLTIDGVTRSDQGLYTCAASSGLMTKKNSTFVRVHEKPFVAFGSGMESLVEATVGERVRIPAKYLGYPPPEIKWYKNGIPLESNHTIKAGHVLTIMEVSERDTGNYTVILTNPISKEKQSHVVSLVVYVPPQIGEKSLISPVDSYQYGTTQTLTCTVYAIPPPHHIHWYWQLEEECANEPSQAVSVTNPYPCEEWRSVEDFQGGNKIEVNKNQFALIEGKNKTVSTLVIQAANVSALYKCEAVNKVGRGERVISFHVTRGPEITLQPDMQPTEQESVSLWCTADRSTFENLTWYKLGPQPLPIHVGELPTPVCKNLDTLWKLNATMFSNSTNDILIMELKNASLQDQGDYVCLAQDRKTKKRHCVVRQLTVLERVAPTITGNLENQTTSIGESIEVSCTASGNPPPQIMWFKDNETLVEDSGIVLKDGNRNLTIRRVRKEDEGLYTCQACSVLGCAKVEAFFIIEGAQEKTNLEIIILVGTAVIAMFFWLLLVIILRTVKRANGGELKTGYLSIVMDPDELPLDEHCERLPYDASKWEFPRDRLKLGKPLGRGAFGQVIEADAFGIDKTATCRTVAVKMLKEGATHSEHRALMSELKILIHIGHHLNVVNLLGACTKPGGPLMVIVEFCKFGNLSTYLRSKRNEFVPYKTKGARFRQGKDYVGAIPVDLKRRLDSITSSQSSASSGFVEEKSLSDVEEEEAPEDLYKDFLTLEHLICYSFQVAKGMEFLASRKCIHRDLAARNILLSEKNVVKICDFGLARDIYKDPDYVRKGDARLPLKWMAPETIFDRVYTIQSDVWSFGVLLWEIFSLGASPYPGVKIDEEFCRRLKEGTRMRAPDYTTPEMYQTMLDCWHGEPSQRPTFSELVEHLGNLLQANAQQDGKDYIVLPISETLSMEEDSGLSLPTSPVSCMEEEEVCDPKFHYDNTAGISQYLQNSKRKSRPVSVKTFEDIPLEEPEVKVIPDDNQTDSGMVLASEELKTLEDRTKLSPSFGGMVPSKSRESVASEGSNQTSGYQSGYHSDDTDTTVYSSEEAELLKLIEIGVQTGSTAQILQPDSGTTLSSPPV

| SMILES | IC50 [1] | IC50 [2] | IC50 [3] |
| --- | --- | --- | --- |
| COc1cc2c(Nc3ccc(Cl)c(Cl)c3)ncnc2cc1OCc1csc(N2CCNCC2)n1 [US9796704, Entry 262] | in the range around 10500 nM | in the range around 10500 nM |  |
| COc1cc2c(Nc3ccc(Cl)c(Cl)c3)ncnc2cc1OCc1noc(-c2ccccc2)n1 [US9796704, Entry 235] |  | in the range around 525 nM |  |
| COc1cc2c(Nc3ccc(Cl)c(Cl)c3)ncnc2cc1OCC1CN(CCCCCC#N)CCO1 (stereo not given) [US9796704, Entry 277] | in the range around 10500 nM | in the range around 525 nM |  |
| COc1cc2c(Nc3ccc(Cl)c(Cl)c3)ncnc2cc1OCC1CN(CCOCCO)CCO1 (stereo not given) [US9796704, Entry 275] | in the range around 10500 nM | in the range around 10500 nM |  |
| CCN1CCN(c2nc(COc3cc4ncnc(Nc5ccc(Cl)c(Cl)c5)c4cc3OC)cs2)CC1 [US9796704, Entry 267] | in the range around 10500 nM | in the range around 525 nM |  |
| COc1cc2c(Nc3ccc(Cl)c(Cl)c3)ncnc2cc1OCc1noc(-c2ccccc2OC)n1 [US9796704, Entry 227] | in the range around 525 nM | in the range around 525 nM |  |
| COc1cc2c(Nc3ccc(Cl)c(Cl)c3)ncnc2cc1OCc1nccn1Cc1ccccc1 [US9796704, Entry 229] | in the range around 525 nM | in the range around 525 nM |  |
| CCN1CCN(c2noc(COc3cc4ncnc(Nc5ccc(Cl)c(Cl)c5)c4cc3OC)n2)CC1 [US9796704, Entry 220] | in the range around 525 nM | in the range around 525 nM |  |
| COc1cc2c(Nc3ccc(Cl)c(Cl)c3)ncnc2cc1OCc1csc(CO)n1 [US9796704, Entry 246] | in the range around 525 nM | in the range around 525 nM |  |
| COc1cc2c(Nc3ccc(Cl)c(Cl)c3)ncnc2cc1OCC1CN(CCCc2ccccc2)CCO1 (stereo not given) [US9796704, Entry 271] | in the range around 10500 nM | in the range around 525 nM |  |
| COc1cc2c(Nc3ccc(Cl)c(Cl)c3)ncnc2cc1OCc1nc([C@@H]2CCCN2C)no1 [US9796704, Entry 265] | in the range around 10500 nM | in the range around 10500 nM |  |
| COc1cc2c(Nc3ccc(Cl)c(Cl)c3)ncnc2cc1OCc1noc(-c2c(C)noc2C)n1 [US9796704, Entry 224] | in the range around 525 nM | in the range around 525 nM |  |
| CCN1CCCC(c2nc(COc3cc4ncnc(Nc5ccc(Cl)c(Cl)c5)c4cc3OC)no2)C1 (stereo not given) [US9796704, Entry 239] |  | in the range around 10500 nM |  |
| CCOC(=O)C(C)N1CCOC(COc2cc3ncnc(Nc4ccc(Cl)c(Cl)c4)c3cc2OC)C1 (stereo not given) [US9796704, Entry 273] | in the range around 10500 nM | in the range around 10500 nM |  |
| COc1cc2c(Nc3ccc(Cl)c(Cl)c3)ncnc2cc1OCc1csc(C2CCCCN2C)n1 (stereo not given) [US9796704, Entry 250] | in the range around 525 nM | in the range around 10500 nM |  |
| COc1cc2c(Nc3ccc(Cl)c(Cl)c3)ncnc2cc1OCc1csc2ccc(Cl)cc12 [US9796704, Entry 225] | in the range around 10500 nM | in the range around 10500 nM |  |
| COc1cc2c(Nc3ccc(Cl)c(Cl)c3)ncnc2cc1OCc1cc(Br)cc(Br)c1 [US9796704, Entry 232] |  | in the range around 525 nM |  |
| CCN1CCCC(c2nc(COc3cc4ncnc(Nc5ccc(Cl)c(Cl)c5)c4cc3OC)cs2)C1 (stereo not given) [US9796704, Entry 254] | in the range around 10500 nM | in the range around 525 nM |  |
| COc1cc2c(Nc3ccc(Cl)c(Cl)c3)ncnc2cc1OCC1CN(C)CCN1C (stereo not given) [US9796704, Entry 268] | in the range around 10500 nM | in the range around 525 nM |  |
| COc1cc2c(Nc3ccc(Cl)c(Cl)c3)ncnc2cc1OCc1ccc2nonc2c1 [US9796704, Entry 163] | in the range around 525 nM |  | in the range around 525 nM |
| COc1cc2c(Nc3ccc(Cl)c(Cl)c3)ncnc2cc1OCC1CN(Cc2ccccc2)CCO1 (stereo not given) [US9796704, Entry 147] | in the range around 525 nM |  | in the range around 10500 nM |
| COc1cc2c(Nc3ccc(Cl)c(Cl)c3)ncnc2cc1OCc1noc(C2CCCNC2)n1 (stereo not given) [US9796704, Entry 153] | in the range around 525 nM |  | in the range around 525 nM |
| COc1cc2c(Nc3ccc(Cl)c(Cl)c3)ncnc2cc1OCc1nc(-c2ccncc2)cs1 [US9796704, Entry 203] |  | in the range around 525 nM |  |
| COc1cc2c(Nc3ccc(Cl)c(Cl)c3)ncnc2cc1OCc1nc(CN2CCOCC2)no1 [US9796704, Entry 143] | in the range around 525 nM |  | in the range around 525 nM |
| COc1cc2c(Nc3ccc(Cl)c(Cl)c3)ncnc2cc1OCc1noc(C2CCCN(C)C2)n1 (stereo not given) [US9796704, Entry 156] | in the range around 525 nM |  | in the range around 525 nM |

More lines, now with the values ahead:

| IC50 [1] | IC50 [2] | IC50 [3] | SMILES |
| --- | --- | --- | --- |
| in the range around 10500 nM | in the range around 525 nM |  | COc1cc2c(Nc3ccc(Cl)c(Cl)c3)ncnc2cc1OCC1CN(C(C)C)CCCO1 (stereo not given) [US9796704, Entry 261] |
| in the range around 525 nM | in the range around 525 nM |  | COc1cc2c(Nc3ccc(Cl)c(Cl)c3)ncnc2cc1OCc1csc([C@@H]2CSCN2)n1 [US9796704, Entry 248] |
| in the range around 10500 nM | in the range around 10500 nM |  | COc1cc2c(Nc3ccc(Cl)c(Cl)c3)ncnc2cc1OCc1noc(C2CCCN2)n1 (stereo not given) [US9796704, Entry 263] |
| in the range around 10500 nM | in the range around 10500 nM |  | COc1cc2c(Nc3ccc(Cl)c(Cl)c3)ncnc2cc1OCc1csc([C@@H]2CCCN2C)n1 [US9796704, Entry 266] |
|  | in the range around 525 nM |  | CCN1CCC(c2nc(COc3cc4ncnc(Nc5ccc(Cl)c(Cl)c5)c4cc3OC)cs2)CC1 [US9796704, Entry 242] |
|  | in the range around 10500 nM |  | COc1cc2c(Nc3ccc(Cl)c(Cl)c3)ncnc2cc1OC[C@@H]1CO[C@H]2[C@@H]1OC[C@@H]2OC [US9796704, Entry 42] |
| in the range around 525 nM | in the range around 525 nM |  | CCN1CCCOC(COc2cc3ncnc(Nc4ccc(Cl)c(Cl)c4)c3cc2OC)C1 (stereo not given) [US9796704, Entry 241] |
|  | in the range around 10500 nM |  | COc1cc2c(Nc3ccc(Cl)c(Cl)c3)ncnc2cc1OCC1CN2CCOCC2CO1 (stereo not given) [US9796704, Entry 25] |
| in the range around 525 nM |  | in the range around 525 nM | COc1cc2c(Nc3cc(Cl)c(Cl)cc3F)ncnc2cc1O[C@@H]1CO[C@@H]2[C@H]1OC[C@H]2F [US9796704, Entry 105] |
|  | in the range around 525 nM |  | COc1cc2c(Nc3ccc(C(F)(F)F)cc3Br)ncnc2cc1O[C@@H]1CO[C@@H]2[C@H]1OC[C@H]2F [US9796704, Entry 125] |
| in the range around 525 nM |  | in the range around 525 nM | COc1cc2c(Nc3ccc(Cl)c(Cl)c3)ncnc2cc1OCc1cc(C)on1 [US9796704, Entry 160] |
|  | in the range around 10500 nM |  | COc1cc2c(Nc3ccc(Cl)c(Cl)c3F)ncnc2cc1OCC1CO[C@@H]2[C@@H](OC)CO[C@H]12 (stereo not given in full) [US9796704, Entry 43] |
